SMILES strings stand for the structures. Active and inactive are the calls of the source. Where only a bound is given, the exact number is not on record here.

Here are results for eight compounds from ChEMBL document CHEMBL1201862, “PubChem BioAssay data set” (2004).

Experiment [1] concerns the target T1, Sphingosine 1-phosphate receptor 4 (Homo sapiens, UniProt O95977).
T1 sequence (O95977 whole entry): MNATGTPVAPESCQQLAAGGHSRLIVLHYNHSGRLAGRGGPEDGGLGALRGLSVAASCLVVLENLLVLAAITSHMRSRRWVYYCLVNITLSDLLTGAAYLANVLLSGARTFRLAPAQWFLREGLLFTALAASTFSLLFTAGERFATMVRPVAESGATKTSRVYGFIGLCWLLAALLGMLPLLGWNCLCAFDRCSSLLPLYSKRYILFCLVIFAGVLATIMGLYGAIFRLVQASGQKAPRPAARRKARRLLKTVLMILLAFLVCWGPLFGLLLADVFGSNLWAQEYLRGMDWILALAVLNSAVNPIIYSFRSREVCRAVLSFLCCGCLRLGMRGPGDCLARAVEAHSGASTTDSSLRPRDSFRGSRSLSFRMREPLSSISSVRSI
The experiment can be described thus: Fluorescence dose response cell-based high throughput screening assay for antagonists of the Sphingosine 1-Phosphate Receptor 4 (S1P4). [Related pubchem assays: 1524 (Confirmation in triplicates.), 1510 (Primary screen.)]. Format: functional.

In experiment [2] the test system is INS1. Kind of experiment: INS-1E survival protection against cytokine death – cell-based, luminescence, retest, dose response (AID 449756).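 Note: cell death triggered by IL-1 beta plus TNF-alpha plus IFN-gamma mixture; protective hits raise ATP signal compared with cytokine alone wells.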 The class given is functional. Particulars: Rattus norvegicus.
In experiment [3] the target is T1, Sphingosine 1-phosphate receptor 4. The experiment can be described thus: Late stage fluorescence dose response cell-based screening assay for antagonists of the Sphingosine 1-Phosphate Receptor 4 (S1P4). [Related pubchem assays: 1524 (Confirmation screen (S1P4 antagonists).), 1510 (Primary screen (S1P4 antagonists).), 1853 (Summary AID (S1P4 antagonists).), 1692 (Dose response screen (S1P4 antagonists).)]. The class given is functional.

For experiment [4], the target named is Sphingosine 1-phosphate receptor 1 (Homo sapiens, UniProt P21453). The class given is functional.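 Note: Tango beta-arrestin reporter U2OS cells stimulated with S1P near its EC80; inhibitor potency meaning antagonism of receptor activation by the natural agonist.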
Sphingosine 1-phosphate receptor 1, sequence (P21453 whole entry): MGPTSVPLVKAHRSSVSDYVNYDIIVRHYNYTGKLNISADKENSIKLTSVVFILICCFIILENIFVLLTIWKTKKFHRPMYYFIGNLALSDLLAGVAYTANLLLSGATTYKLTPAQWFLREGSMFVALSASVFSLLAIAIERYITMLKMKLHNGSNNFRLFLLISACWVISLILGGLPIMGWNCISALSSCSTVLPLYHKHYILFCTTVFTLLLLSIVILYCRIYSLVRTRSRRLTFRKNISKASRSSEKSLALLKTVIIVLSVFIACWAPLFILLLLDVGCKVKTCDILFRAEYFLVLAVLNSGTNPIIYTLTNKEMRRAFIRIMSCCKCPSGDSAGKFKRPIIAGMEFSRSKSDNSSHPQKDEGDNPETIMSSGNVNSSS
Experiment [5] relates to H4. The experiment can be described thus: Luminescence Cell-Based Dose Response HTS to Identify Activators of 5'UTR Stem-Loop Driven Prion Protein mRNA Translation in H4 Neuroglioblastoma Cells. [Related pubchem assays: 1829 (Project Summary), 1814 (Primary HTS)]. Format: functional. The following applies: Homo sapiens.
The nature of experiment [6]: Luminescence Cell-Based Dose Confirmation to Identify Activators of 5'UTR Stem-Loop Driven Alpha-Synuclein mRNA Translation in H4 Neuroglioblastoma Cells. [Related pubchem assays: 1829 (Project Summary), 1814 (Primary HTS)]. Format: functional.
Experiment [7] is described as follows: Luminescence Cell-Based Dose Response to Identify Activators of 5'UTR Stem-Loop Driven Prion Protein mRNA Translation in H4-C Neuroglioblastoma Cells. [Related pubchem assays: 1829 (Project Summary), 1814 (Primary HTS)]. The class given is functional.
Experiment [8] can be described thus: Luminescence Cell-Based Dose Response to Identify Activators of Luciferase Translation or Activity in H4-C Neuroglioblastoma Cells. [Related pubchem assays: 1829 (Project Summary), 1814 (Primary HTS)]. Format: functional.
A short description of experiment [9]: Luminescence Cell-Based Dose Response HTS to Identify Activators of Luciferase Translation or Activity in H4 […] Cells. [Related pubchem assays: 1829 (Project Summary), 1814 (Primary HTS)]. Format: functional.
Experiment [10] addresses Beta-galactosidase (Escherichia coli, UniProt Q8VNN2). The experiment can be described thus: PubChem AID 485352. The class given is functional.
For experiment [11], the target named is T2, Type-1 angiotensin II receptor (Homo sapiens, UniProt P30556).
T2 sequence (P30556 whole entry): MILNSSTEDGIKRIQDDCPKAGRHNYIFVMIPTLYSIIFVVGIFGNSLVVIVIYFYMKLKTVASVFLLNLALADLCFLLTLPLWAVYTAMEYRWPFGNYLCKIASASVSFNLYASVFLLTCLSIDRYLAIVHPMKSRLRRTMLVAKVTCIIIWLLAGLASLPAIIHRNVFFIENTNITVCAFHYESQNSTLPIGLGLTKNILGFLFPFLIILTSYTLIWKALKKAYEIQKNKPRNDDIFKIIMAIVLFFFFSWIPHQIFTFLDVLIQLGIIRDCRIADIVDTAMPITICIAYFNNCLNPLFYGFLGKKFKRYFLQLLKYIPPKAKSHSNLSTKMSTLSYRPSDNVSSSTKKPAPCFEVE
The experiment can be described thus: antagonism of angiotensin II type 1 receptor – cell-based, uHTS hits, selectivity assay for APJ receptor antagonist project, dose response (AID 463214).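 Note: antagonist potency against angiotensin II stimulated AT1 response.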 The class given is functional.

For experiment [12], the target named is Protein-tyrosine kinase 2-beta (Homo sapiens, UniProt Q14289).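 Note: potency of inhibitors of PYK2 kinase phosphorylation of poly-GT substrate.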
Protein-tyrosine kinase 2-beta, sequence (Q14289 whole entry): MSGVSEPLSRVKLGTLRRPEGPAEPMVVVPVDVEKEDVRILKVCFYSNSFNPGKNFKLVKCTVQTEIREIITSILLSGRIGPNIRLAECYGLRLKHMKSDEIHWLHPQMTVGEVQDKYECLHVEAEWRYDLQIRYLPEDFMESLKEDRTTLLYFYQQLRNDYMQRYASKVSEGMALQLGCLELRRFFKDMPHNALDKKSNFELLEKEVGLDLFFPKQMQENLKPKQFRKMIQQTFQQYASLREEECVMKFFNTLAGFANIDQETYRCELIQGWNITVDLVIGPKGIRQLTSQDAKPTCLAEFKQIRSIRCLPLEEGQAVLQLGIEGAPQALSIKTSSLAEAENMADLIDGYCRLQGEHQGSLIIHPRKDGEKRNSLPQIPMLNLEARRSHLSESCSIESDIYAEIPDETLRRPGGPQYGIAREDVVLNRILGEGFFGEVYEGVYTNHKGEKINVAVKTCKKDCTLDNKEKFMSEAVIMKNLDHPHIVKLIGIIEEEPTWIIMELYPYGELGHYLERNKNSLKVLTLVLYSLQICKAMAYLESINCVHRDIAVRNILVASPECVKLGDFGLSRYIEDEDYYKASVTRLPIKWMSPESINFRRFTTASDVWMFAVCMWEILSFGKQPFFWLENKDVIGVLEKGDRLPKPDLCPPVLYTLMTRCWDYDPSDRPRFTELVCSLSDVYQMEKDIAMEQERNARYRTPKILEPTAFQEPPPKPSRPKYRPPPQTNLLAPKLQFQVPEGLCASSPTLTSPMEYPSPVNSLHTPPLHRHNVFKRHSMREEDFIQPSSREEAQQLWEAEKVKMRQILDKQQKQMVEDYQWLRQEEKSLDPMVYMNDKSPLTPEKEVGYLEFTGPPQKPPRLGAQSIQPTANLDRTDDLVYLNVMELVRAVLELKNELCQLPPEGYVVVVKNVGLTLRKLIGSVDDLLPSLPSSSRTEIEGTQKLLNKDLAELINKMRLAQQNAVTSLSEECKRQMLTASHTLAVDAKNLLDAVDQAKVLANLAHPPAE
For experiment [13], the target named is Epstein-Barr nuclear antigen 1 (Epstein-Barr virus (strain B95-8) (HHV-4) (Human herpesvirus 4), UniProt P03211). Kind of experiment: inhibition of EBV nuclear antigen 1 DNA binding – biochemical, fluorescence polarization, 1536-well, dose response (AID 2381).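 Note: fluorescence polarization of a Cy5 DNA probe bound by EBNA-1 protein.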 Also noted: species or system human gammaherpesvirus 4. On the technique in general: Fluorescence polarisation rises when a labelled molecule tumbles more slowly, as on binding a larger partner.
Epstein-Barr nuclear antigen 1, sequence (P03211 whole entry): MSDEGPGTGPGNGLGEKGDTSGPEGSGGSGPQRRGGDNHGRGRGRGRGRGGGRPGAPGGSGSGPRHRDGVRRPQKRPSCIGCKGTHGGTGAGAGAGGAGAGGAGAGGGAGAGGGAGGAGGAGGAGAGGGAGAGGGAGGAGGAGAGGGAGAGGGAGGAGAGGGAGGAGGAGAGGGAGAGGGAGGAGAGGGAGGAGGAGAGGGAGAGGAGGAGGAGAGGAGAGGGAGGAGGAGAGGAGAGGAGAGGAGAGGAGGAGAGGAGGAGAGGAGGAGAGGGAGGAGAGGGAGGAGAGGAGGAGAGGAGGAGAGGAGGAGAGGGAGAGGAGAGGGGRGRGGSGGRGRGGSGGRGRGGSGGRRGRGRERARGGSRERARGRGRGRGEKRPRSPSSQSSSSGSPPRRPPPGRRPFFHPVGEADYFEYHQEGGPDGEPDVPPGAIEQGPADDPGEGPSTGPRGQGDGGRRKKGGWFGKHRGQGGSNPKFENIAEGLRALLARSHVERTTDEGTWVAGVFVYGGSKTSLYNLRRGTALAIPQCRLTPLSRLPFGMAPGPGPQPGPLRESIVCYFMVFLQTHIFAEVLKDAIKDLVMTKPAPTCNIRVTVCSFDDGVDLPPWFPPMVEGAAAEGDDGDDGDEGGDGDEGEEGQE

In experiment [14] the target is Lytic switch protein BZLF1 (Epstein-Barr virus (strain B95-8) (HHV-4) (Human herpesvirus 4), UniProt P03206). Kind of experiment: inhibition of BZLF1 ZTA DNA binding – biochemical, fluorescence polarization, Epstein-Barr virus, 1536-well, counter-screen for EBNA-1 inhibitor project, dose response (AID 2377).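 Note: fluorescence polarization of Cy5-labelled ZRE DNA probe bound by purified Zta.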 Also noted: species or system human gammaherpesvirus 4.
Lytic switch protein BZLF1, sequence (P03206 whole entry): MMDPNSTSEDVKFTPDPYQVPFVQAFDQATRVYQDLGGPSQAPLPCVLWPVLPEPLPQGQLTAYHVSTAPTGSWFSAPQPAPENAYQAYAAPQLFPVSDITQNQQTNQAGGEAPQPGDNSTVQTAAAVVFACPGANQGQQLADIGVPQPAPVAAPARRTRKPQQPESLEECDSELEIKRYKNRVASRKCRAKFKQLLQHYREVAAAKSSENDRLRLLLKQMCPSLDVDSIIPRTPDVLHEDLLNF
Experiment [15] can be described thus: viability of uninfected HEp-2 cells – cell-based, HTS, cytotoxicity control for RSV inhibitor project, dose response (AID 2410). Format: functional. The following applies: human respiratory syncytial virus.
A short description of experiment [16]: antiviral protection against BTV-induced cell death – arbovirus, BSR cells, confirmation (AID 1250).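 Note: protection from viral cytopathic effect measured as cell viability by ATP luminescence.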 The class given is functional.
Experiment [17] addresses T3, Bcl-2-related protein A1 (Mus musculus, UniProt Q07440).
T3 sequence (Q07440 whole entry): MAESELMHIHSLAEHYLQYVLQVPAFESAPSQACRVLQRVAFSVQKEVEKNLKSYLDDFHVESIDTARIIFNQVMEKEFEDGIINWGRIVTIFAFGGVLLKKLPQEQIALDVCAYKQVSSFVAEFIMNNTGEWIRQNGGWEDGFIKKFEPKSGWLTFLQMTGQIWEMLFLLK
The experiment can be described thus: small-molecule antagonists of Bfl-1/BH3 interaction – biochemical, TR-FRET, mouse Bfl-1, confirmation (AID 621). (In general: In TR-FRET formats the signal depends on donor and acceptor labels being close together.)

For experiment [18], the target named is Glyceraldehyde-3-phosphate dehydrogenase (Homo sapiens, UniProt P04406).
Glyceraldehyde-3-phosphate dehydrogenase, sequence (P04406 whole entry): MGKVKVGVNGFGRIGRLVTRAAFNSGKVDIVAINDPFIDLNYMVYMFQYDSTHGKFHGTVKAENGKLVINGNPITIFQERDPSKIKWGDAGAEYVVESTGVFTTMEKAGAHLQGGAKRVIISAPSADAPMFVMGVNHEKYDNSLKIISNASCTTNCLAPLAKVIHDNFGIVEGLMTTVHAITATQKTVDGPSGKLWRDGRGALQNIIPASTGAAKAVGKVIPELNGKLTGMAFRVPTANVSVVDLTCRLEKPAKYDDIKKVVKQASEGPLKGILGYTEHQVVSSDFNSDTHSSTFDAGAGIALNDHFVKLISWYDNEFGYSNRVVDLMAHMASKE
The target of experiment [19] is T3, Bcl-2-related protein A1. Kind of experiment: Bfl-1 binding inhibitors, SAR follow-up, biochemical, fluorescence polarization (AID 1070).
Experiment [20] addresses Aspartyl aminopeptidase (Plasmodium falciparum 3D7, UniProt Q8I2J3). Kind of experiment: Counterscreen for inhibitors of M1 and M17 aminopeptidases: QFRET-based biochemical high throughput dose response assay for inhibitors of the Plasmodium falciparum M18 Aspartyl Aminopeptidase (PFM18AAP). [Related PubChem assays: 1619 (Screening assay (M17LAP inhibitors).), 1445 (Screening assay (M1AAP inhibitors).)]. In general terms: A counterscreen serves to expose hits that act by an unwanted route or on another target.

Experiment [21] has as its target Procathepsin L (Homo sapiens, UniProt P07711). Kind of experiment: CTSL1 protease inhibition – biochemical, QFRET, 1536-well, counter-screen for M1/M17 aminopeptidase inhibitor project, dose response (AID 2214).
The target of experiment [22] is Cytochrome P450 2C9 (Homo sapiens, UniProt P11712).
Cytochrome P450 2C9, sequence (P11712 whole entry): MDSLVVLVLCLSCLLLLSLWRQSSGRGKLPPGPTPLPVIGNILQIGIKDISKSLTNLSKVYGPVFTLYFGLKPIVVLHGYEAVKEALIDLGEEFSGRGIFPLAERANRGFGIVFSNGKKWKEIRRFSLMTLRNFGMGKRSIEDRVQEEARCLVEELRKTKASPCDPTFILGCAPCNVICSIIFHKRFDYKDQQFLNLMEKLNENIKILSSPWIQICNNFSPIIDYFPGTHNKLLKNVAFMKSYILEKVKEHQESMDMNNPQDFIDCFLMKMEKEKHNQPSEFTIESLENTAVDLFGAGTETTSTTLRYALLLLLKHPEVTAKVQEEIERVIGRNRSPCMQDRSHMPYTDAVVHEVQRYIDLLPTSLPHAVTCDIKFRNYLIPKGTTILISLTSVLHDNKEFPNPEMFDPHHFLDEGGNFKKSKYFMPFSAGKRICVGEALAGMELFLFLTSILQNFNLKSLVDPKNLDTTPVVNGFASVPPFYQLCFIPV
For experiment [23], the target named is T4, Leucine aminopeptidase (Plasmodium falciparum 3D7, UniProt Q8IL11).
T4 sequence (Q8IL11 whole entry): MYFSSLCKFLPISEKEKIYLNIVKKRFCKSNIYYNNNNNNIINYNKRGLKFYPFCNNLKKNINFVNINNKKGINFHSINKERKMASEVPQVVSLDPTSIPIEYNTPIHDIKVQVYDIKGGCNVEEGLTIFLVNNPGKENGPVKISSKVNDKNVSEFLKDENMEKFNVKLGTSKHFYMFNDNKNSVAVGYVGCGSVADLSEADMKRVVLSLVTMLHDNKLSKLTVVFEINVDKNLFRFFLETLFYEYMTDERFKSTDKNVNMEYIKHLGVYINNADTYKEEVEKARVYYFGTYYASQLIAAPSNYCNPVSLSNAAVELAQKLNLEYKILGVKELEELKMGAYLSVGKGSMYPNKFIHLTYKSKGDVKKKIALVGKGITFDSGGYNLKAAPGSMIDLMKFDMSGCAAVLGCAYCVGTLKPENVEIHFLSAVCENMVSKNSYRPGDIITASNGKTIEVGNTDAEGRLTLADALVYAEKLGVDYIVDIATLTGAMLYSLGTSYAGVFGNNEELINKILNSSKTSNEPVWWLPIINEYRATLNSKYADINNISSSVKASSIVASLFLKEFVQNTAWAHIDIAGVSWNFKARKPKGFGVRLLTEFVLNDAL
Kind of experiment: P. falciparum M17LAP inhibitors, primary screen, biochemical, fluorogenic H-Leu-NHMec substrate, 1536-well (AID 1619). Format: functional.

Experiment [24] has as its target Cytochrome P450 2C19 (Homo sapiens, UniProt P33261). The experiment can be described thus: Cytochrome panel assay with activity outcomes. Panel member name: p450-cyp2c19 Compounds with AC50 equal or less than 10 uM are considered active. The class given is functional. Particulars: read-out: AC50.
Experiment [25] deals with Sphingosine 1-phosphate receptor 2 (Homo sapiens, UniProt O95136). The experiment can be described thus: Dose Response Cell Based Assay for Agonists of the S1P2 Receptor of Purchased Analogues. [Related pubchem assays: 729, 843, 854, 736 ]. Format: functional.
Sphingosine 1-phosphate receptor 2, sequence (O95136 whole entry): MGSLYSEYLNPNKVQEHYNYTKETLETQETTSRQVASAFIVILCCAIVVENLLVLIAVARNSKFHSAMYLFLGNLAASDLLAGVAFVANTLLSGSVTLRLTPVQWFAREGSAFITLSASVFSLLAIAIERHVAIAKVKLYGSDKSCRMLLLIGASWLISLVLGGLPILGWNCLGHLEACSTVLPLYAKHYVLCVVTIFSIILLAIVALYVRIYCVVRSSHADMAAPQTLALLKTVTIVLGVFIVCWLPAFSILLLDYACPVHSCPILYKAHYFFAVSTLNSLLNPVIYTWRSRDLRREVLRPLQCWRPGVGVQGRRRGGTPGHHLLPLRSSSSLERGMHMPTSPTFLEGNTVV

Beta-galactosidase, sequence (Q8VNN2 whole entry): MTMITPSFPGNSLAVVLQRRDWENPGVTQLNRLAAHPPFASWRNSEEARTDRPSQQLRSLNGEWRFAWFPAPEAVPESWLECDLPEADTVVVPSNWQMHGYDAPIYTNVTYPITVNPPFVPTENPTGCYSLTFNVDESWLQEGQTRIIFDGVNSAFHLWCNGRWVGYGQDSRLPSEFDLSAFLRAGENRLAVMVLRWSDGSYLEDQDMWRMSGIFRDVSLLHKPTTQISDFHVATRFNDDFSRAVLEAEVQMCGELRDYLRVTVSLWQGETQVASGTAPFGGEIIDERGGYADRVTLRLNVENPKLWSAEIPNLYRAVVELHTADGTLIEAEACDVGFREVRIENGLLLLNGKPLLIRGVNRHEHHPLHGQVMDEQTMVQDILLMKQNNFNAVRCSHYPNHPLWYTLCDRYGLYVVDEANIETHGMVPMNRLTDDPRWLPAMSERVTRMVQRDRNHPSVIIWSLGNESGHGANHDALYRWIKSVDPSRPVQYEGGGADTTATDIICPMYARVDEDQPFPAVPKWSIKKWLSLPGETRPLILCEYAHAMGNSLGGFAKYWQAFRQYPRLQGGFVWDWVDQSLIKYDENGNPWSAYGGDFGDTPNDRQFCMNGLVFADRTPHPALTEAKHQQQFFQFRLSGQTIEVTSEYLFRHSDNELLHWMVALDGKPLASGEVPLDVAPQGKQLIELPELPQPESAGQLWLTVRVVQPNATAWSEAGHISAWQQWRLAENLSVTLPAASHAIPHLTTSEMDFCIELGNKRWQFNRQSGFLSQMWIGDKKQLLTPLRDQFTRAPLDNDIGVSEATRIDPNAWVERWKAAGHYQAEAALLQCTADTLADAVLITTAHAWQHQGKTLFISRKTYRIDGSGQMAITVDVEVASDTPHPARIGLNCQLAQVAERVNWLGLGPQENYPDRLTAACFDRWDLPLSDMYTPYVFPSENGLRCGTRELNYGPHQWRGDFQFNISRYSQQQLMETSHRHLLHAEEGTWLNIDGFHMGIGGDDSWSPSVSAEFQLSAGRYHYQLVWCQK
Cytochrome P450 2C19, sequence (P33261 whole entry): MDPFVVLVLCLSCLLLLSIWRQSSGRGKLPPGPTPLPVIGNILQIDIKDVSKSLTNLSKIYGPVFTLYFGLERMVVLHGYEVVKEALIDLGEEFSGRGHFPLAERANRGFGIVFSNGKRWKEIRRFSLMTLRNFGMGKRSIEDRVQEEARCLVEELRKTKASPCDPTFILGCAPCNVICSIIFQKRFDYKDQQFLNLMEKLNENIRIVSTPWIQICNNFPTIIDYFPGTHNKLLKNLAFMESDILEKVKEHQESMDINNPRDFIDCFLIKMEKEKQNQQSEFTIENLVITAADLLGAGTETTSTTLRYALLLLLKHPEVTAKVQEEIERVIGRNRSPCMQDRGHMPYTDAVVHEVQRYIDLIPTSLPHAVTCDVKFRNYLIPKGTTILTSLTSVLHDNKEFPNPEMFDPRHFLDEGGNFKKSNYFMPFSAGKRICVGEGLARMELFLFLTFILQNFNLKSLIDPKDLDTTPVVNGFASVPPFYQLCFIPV

A word on the IC50: it is the concentration that gives 50% inhibition. As usually defined, the AC50 is the concentration giving half of the maximal activity seen. For the compound `CCOC(=O)C(=Cc1ccc(Br)cc1)C(=O)OCC`, the IC50 in experiment [1] was 0.419 µM (active); in experiment [3], 0.887 µM (active); in [4], 9.77 µM (active). Moreover, the half-maximal activity concentration (AC50) in experiment [2] was 25 µM (active).

The EC50 is the concentration that produces a half-maximal response. Turning to `Cc1ccsc1C1NC(=O)c2c(sc3c2CCCC3)N1` (stereo not given), the EC50 in experiment [5] is 48.3 µM (active); in experiment [6], 0.571 µM (active); in experiment [7], 1.12 µM (active); in experiment [8], 0.643 µM (active); in experiment [9], < 0.1 µM (inconclusive).

With `CCOCCO/C(O)=C1\C(C)=NC2=C(C(=O)CC(c3cccs3)C2)C1c1ccsc1` (stereo not given), the EC50 in experiment [10] was > 40 µM (inactive). Also, the IC50 in experiment [11] was > 40 µM (not active); in experiment [12], > 69.5 µM (not active).

For the compound `Cc1ccc(NC(=O)CSc2ccc(-c3ccccn3)nn2)cc1F`, the IC50 in experiment [13] is > 16.4 µM (not active); in [14], > 111 µM (not active).

A word on the CC50: it is the concentration at which the toxic effect on the cells reaches its halfway point. Take `COc1ccc(-c2cc(-c3ccc(OC)c(OC)c3)[nH]n2)c(O)c1`: in experiment [15], the CC50 is 46.3 µM (active). The 50% inhibitory concentration (IC50) in [16] was 45.6 µM (active).

`O=C1C(Cl)=C(N2CCOCC2)C(=O)N1c1ccc([N+](=O)[O-])cc1`: the results for the IC50 in [17], in [18] and in [19] were 2.29 µM (active), > 100 µM (not active) and 1.49 µM (active), respectively.

Turning to `CCOC(=O)c1c(-c2ccc(C)cc2)csc1NC(=O)C1CC=CCC1C(=O)O` (stereo not given), the IC50 was > 73.5 µM (not active) in experiment [20], > 59.6 µM (not active) in experiment [21] and 4.8 µM (active) in [23]. Moreover, the half-maximal activity concentration (AC50) in experiment [22] was 25.1 µM (inconclusive); in experiment [24], 28.2 µM (inconclusive).

With `Cc1cc(C(=O)CN2C(=O)C(=O)N(Cc3ccccc3)C2=O)c(C)n1Cc1ccc(F)cc1`, the concentration for a half-maximal effect (EC50) in experiment [25] is listed as > 30 µM (not active).
